Test results taken from ChEMBL document CHEMBL1773059, “NMS-P937, a 4,5-dihydro-1H-pyrazolo[4,3-h]quinazoline derivative as potent and selective Polo-like kinase 1 inhibitor” (Bioorg Med Chem Lett, 2011).
≈ marks a conversion by molar mass, not a printed value.

Experiments:
Mus musculus [1] = assay: Toxicity in CD1 nu/nu mouse xenografted with human HCT116 cells assessed as mortality at 90 mg/kg, po BID administered on days 1 to 2 in weekly scheduling for 4 cycles; format: organism-based, HCT-116; set-up: dose 90 mg/kg, route oral; settings: in vivo
[2] = target: Vascular endothelial growth factor receptor 2 (Homo sapiens, UniProt P35968); assay: Inhibition of VEGFR2 assessed as [33P]gamma-ATP incorporation into substrate after 60 mins by gamma counting
[3] = Intrinsic clearance in rat hepatocytes at 1 uM; format: ADME, cell-based, Liver, Hepatocyte
[4] = target: CDC7/DBF4 (Cell division cycle 7-related protein kinase/Activator of S phase kinase) (Homo sapiens, UniProt O00311); assay: Inhibition of CDC7/DBF4 assessed as [33P]gamma-ATP incorporation into substrate after 60 mins by gamma counting; format: protein-complex assay
[5] = target: Serine/threonine-protein kinase Nek6 (Homo sapiens, UniProt Q9HC98); assay: Inhibition of NEK6 assessed as [33P]gamma-ATP incorporation into substrate after 60 mins by gamma counting
[6] = target: Mitogen-activated protein kinase 14 (Homo sapiens, UniProt Q16539); assay: Inhibition of P38alpha assessed as [33P]gamma-ATP incorporation into substrate after 60 mins by gamma counting
[7] = target: Serine/threonine-protein kinase haspin (Homo sapiens, UniProt Q8TF76); assay: Inhibition of Haspin assessed as [33P]gamma-ATP incorporation into substrate after 60 mins by gamma counting
[8] = target: Serine/threonine-protein kinase PAK 4 (Homo sapiens, UniProt O96013); assay: Inhibition of PAK4 assessed as [33P]gamma-ATP incorporation into substrate after 60 mins by gamma counting
[9] = target: Epidermal growth factor receptor (Homo sapiens, UniProt P04626+P00533+Q15303+P21860); assay: Inhibition of EGFR1 assessed as [33P]gamma-ATP incorporation into substrate after 60 mins by gamma counting; format: protein assay
HCT-116 [10] = assay: Antitumor activity against human HCT116 cells xenografted in CD1 nu/nu mouse assessed as tumor growth inhibition at 90 mg/kg, po once daily administered on days 1 to 2 daily in weekly scheduling for 4 cycles measured on day 36; settings: HCT-116, po, 864 h, read-out: TGI
[11] = target: Proto-oncogene tyrosine-protein kinase ROS (Homo sapiens, UniProt P08922); assay: Inhibition of ROS1 assessed as [33P]gamma-ATP incorporation into substrate after 60 mins by gamma counting
[12] = target: Tyrosine-protein kinase SYK (Homo sapiens, UniProt P43405); assay: Inhibition of Syk assessed as [33P]gamma-ATP incorporation into substrate after 60 mins by gamma counting
HCT-116 [13] = assay: Antitumor activity against human HCT116 cells xenografted in CD1 nu/nu mouse assessed as tumor growth inhibition at 45 mg/kg, iv BID administered on days 1 to 3 in weekly scheduling for 2 cycles measured on day 24; format: functional; settings: HCT-116, 576 h, read-out: TGI
[14] = Solubility of compound at pH 7; format: physicochemical; settings: buffer
[15] = target: Cyclin-dependent kinase 1/cyclin B1 (Homo sapiens, UniProt P06493); assay: Inhibition of CDK1/CYCB assessed as [33P]gamma-ATP incorporation into substrate after 60 mins by gamma counting; format: protein-complex assay
Mus musculus [16] = assay: Toxicity in CD1 nu/nu mouse xenografted with human HCT116 cells assessed as reversible body weight loss at 45 mg/kg, iv BID administered on days 1 to 3 in weekly scheduling for 2 cycles measured on day 15; format: organism-based, HCT-116; set-up: dose 45 mg/kg, route intravenous; settings: in vivo
[17] = target: Maternal embryonic leucine zipper kinase (Homo sapiens, UniProt Q14680); assay: Inhibition of MELK assessed as [33P]gamma-ATP incorporation into substrate after 60 mins by gamma counting
[18] = target: Tyrosine-protein kinase Lyn (Homo sapiens, UniProt P07948); assay: Inhibition of LYN assessed as [33P]gamma-ATP incorporation into substrate after 60 mins by gamma counting
[19] = target: Eukaryotic translation initiation factor 2-alpha kinase 3 (Homo sapiens, UniProt Q9NZJ5); assay: Inhibition of PERK assessed as [33P]gamma-ATP incorporation into substrate after 60 mins by gamma counting
[20] = target: Mitotic checkpoint serine/threonine-protein kinase BUB1 (Homo sapiens, UniProt O43683); assay: Inhibition of BUB1 assessed as [33P]gamma-ATP incorporation into substrate after 60 mins by gamma counting
Mus musculus [21] = assay: Toxicity in CD1 nu/nu mouse xenografted with human HCT116 cells assessed as reversible body weight loss at 90 mg/kg, po once daily administered on days 1 to 2 in weekly scheduling for 4 cycles measured on day 36; settings: in vivo
[22] = target: Cyclin-dependent kinase 4/cyclin D1 (Homo sapiens, UniProt P11802); assay: Inhibition of CDK4/CYCD1 assessed as [33P]gamma-ATP incorporation into substrate after 60 mins by gamma counting; format: protein-complex assay
Mus musculus [23] = assay: Toxicity in CD1 nu/nu mouse xenografted with human HCT116 cells assessed as mortality at 120 mg/kg, po BID administered on days 1 to 2 in weekly scheduling for 4 cycles; format: organism-based, HCT-116; set-up: dose 120 mg/kg, route oral; settings: in vivo
[24] = target: Serine/threonine-protein kinase tousled-like 2 (Homo sapiens, UniProt Q86UE8); assay: Inhibition of TLK2 assessed as [33P]gamma-ATP incorporation into substrate after 60 mins by gamma counting
[25] = target: Serine/threonine-protein kinase pim-2 (Homo sapiens, UniProt Q9P1W9); assay: Inhibition of PIM2 assessed as [33P]gamma-ATP incorporation into substrate after 60 mins by gamma counting
[26] = target: Glycogen synthase kinase-3 beta (Homo sapiens, UniProt P49841); assay: Inhibition of GSK3-beta assessed as [33P]gamma-ATP incorporation into substrate after 60 mins by gamma counting
[27] = Intrinsic clearance in human liver microsomes at 1 uM; format: ADME, Microsome
Focal adhesion kinase 1 = Focal adhesion kinase 1 (Homo sapiens, UniProt Q05397); assay: Inhibition of FAK assessed as [33P]gamma-ATP incorporation into substrate after 60 mins by gamma counting
[28] = target: Tyrosine-protein kinase ZAP-70 (Homo sapiens, UniProt P43403); assay: Inhibition of ZAP70 assessed as [33P]gamma-ATP incorporation into substrate after 60 mins by gamma counting

CDC7/DBF4 (Cell division cycle 7-related protein kinase/Activator of S phase kinase), sequence (Q9UBU7 whole entry): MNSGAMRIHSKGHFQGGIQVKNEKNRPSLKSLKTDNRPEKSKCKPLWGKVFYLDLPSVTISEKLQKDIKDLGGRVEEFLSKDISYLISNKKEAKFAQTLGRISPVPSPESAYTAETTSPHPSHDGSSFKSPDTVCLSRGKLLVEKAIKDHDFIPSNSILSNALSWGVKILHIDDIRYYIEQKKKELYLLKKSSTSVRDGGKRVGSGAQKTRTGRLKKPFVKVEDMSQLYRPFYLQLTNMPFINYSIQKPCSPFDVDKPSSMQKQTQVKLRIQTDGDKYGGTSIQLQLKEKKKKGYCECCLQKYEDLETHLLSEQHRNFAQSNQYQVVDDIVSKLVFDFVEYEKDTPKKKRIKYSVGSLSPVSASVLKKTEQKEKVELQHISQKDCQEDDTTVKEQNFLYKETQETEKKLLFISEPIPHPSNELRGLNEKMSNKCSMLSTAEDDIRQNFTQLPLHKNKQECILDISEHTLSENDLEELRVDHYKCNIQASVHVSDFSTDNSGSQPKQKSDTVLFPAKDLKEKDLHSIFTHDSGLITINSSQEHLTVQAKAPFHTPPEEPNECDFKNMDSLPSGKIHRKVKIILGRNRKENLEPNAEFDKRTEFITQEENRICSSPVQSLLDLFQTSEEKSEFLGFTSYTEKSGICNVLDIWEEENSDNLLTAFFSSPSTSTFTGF
CDC7/DBF4 (Cell division cycle 7-related protein kinase/Activator of S phase kinase), sequence (O00311 whole entry): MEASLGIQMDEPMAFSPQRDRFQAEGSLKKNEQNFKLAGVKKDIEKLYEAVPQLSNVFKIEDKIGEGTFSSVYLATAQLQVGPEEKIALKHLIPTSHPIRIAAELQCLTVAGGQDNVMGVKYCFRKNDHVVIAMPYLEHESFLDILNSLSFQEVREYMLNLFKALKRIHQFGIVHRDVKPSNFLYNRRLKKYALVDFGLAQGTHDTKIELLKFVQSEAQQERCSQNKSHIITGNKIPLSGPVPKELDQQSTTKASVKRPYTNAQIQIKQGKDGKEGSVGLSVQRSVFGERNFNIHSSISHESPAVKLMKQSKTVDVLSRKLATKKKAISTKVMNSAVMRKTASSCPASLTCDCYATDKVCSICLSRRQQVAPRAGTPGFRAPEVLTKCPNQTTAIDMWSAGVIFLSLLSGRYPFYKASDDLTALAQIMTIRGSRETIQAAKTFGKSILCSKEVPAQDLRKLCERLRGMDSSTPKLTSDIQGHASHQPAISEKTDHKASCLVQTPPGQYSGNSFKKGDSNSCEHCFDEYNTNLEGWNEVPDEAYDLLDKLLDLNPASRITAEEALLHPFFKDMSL
Cyclin-dependent kinase 4/cyclin D1, sequence (P11802 whole entry): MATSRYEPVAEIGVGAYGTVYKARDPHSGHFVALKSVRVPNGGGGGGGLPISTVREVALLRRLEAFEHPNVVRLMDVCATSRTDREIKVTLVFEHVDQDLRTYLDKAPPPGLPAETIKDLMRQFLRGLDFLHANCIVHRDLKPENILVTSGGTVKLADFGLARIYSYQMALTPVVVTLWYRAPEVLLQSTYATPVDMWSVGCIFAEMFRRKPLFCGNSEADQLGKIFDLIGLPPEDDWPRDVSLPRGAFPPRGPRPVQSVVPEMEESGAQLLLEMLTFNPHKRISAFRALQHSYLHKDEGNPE
Cyclin-dependent kinase 4/cyclin D1, sequence (P24385 whole entry, further chain): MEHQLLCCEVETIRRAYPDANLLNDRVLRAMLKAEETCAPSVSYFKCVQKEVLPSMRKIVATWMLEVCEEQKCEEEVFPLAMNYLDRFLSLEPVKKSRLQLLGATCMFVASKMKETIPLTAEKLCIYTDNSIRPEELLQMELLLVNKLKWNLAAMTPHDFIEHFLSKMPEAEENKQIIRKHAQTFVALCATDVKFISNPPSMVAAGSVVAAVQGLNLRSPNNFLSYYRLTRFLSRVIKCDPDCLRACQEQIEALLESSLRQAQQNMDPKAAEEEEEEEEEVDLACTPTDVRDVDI
Serine/threonine-protein kinase PAK 4, sequence (O96013 whole entry): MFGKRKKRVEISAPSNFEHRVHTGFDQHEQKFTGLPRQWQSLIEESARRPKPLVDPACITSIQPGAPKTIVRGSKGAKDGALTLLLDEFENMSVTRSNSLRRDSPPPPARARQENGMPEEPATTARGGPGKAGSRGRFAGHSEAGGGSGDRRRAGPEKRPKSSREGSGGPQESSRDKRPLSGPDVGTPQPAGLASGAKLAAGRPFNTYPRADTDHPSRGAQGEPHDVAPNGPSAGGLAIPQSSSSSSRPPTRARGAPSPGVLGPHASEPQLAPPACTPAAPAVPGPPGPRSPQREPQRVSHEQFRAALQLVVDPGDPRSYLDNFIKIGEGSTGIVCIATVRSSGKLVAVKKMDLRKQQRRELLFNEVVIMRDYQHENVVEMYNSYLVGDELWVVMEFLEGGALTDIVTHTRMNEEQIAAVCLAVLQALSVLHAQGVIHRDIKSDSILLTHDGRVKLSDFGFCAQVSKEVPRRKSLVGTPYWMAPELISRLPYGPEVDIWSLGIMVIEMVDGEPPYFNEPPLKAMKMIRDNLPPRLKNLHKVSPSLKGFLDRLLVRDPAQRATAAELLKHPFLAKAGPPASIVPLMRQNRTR
Proto-oncogene tyrosine-protein kinase ROS, sequence (P08922 whole entry): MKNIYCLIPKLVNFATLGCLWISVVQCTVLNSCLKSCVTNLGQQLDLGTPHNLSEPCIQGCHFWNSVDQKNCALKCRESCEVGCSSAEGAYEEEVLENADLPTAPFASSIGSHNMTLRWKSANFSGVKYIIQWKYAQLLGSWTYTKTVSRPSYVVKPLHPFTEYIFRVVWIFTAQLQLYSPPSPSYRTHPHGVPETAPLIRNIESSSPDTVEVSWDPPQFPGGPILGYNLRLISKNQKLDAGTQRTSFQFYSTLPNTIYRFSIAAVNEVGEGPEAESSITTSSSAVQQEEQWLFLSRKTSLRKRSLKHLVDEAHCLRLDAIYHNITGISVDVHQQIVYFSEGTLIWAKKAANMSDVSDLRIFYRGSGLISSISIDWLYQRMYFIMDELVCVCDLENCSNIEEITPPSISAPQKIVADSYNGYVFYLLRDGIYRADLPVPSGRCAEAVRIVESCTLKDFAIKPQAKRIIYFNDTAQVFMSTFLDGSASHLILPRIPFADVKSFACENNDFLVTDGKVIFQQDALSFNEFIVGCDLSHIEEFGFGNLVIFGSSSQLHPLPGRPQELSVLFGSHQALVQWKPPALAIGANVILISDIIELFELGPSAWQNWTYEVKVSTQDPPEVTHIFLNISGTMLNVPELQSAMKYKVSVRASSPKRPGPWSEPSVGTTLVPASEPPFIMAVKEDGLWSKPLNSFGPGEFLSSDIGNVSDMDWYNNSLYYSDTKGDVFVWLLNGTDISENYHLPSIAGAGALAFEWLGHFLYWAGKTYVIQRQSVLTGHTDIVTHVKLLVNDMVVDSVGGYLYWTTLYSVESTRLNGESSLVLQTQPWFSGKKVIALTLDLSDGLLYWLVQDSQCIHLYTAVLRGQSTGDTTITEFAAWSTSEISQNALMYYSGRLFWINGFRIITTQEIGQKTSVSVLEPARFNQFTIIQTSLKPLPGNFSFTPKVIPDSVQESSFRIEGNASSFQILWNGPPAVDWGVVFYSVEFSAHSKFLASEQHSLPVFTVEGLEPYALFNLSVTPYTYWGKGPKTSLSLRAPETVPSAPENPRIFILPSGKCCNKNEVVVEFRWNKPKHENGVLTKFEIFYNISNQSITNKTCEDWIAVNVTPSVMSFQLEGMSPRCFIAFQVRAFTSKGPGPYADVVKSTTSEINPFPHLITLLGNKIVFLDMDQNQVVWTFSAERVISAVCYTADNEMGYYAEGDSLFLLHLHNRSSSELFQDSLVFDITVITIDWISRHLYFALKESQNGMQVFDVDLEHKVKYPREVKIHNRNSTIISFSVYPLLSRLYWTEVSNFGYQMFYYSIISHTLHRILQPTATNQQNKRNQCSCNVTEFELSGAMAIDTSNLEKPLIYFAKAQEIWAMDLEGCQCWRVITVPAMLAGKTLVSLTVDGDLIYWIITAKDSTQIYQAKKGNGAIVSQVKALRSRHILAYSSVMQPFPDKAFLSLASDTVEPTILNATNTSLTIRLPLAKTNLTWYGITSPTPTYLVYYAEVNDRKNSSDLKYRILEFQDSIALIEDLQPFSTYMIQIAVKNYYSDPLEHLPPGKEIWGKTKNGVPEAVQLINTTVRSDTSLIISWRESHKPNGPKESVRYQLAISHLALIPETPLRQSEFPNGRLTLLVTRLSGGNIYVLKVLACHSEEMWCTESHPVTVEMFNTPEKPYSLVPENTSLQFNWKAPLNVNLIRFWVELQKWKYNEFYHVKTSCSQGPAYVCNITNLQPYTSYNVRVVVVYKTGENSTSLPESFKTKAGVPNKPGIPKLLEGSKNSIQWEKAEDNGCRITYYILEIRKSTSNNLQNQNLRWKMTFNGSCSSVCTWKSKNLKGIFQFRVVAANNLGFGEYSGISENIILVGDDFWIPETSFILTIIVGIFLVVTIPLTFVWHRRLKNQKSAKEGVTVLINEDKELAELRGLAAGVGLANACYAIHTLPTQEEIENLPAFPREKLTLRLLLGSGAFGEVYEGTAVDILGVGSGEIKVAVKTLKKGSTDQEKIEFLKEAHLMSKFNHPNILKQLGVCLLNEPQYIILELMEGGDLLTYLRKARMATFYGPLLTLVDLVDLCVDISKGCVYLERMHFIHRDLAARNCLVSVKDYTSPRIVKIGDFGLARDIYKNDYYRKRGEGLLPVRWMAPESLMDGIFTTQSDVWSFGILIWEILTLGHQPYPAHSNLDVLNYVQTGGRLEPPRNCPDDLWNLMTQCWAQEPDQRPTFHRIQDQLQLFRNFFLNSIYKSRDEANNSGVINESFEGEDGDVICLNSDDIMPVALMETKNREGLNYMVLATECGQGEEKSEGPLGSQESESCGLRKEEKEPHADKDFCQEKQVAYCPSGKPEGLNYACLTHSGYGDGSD

In the case of `CN1CCN(c2ccc(OC(F)(F)F)c(Nc3ncc4c(n3)-c3c(c(C(N)=O)nn3CCO)CC4)c2)CC1` [ONVANSERTIB], the Activity (Mus musculus [1]) is reported as “Non-toxic”, the IC50 [2] is reported as > 10 µM and the CLint scaled at 1 µM [3] is reported as 165 mL/min/kg. The IC50 [4] was > 10 µM, the IC50 [5] was > 10 µM and the IC50 [6] was > 10 µM. The IC50 [7] was > 10 µM, the IC50 [8] was > 10 µM and the IC50 [9] was > 10 µM. For the same compound, the inhibition in vivo at 90 mg/kg (HCT-116 [10]) was 71%, the IC50 [11] was > 10 µM and the IC50 [12] was > 10 µM. For the same compound, the inhibition in vivo at 45 mg/kg (HCT-116 [13]) was 83%, the solubility [14] was 201 µM (≈ 107 µg/mL) and the IC50 [15] was > 10 µM. For the same compound, the Activity (Mus musculus [16]) was 16%, the IC50 [17] was […] and the IC50 [18] was > 10 µM. For the same compound, the IC50 [19] was > 10 µM, the IC50 [20] was > 10 µM and the Activity (Mus musculus [21]) was 10%. The IC50 [22] was > 10 µM, the Activity (Mus musculus [23]) was “Non-toxic” and the IC50 [24] was > 10 µM. The IC50 [25] was > 10 µM, the IC50 [26] was > 10 µM and the CLint scaled at 1 µM [27] was 16.9 mL/min/kg. The IC50 (Focal adhesion kinase 1) was > 10 µM and the IC50 [28] was > 10 µM.
